Test results as given in patent US12286429B2, “5-oxo-1,2,3,5,8,8a-hexahydroindolizine-3-carboxamide derivatives useful as a factor XIa inhibitors” (Janssen Pharmaceutica NV, priority 2021, dated 2025).

Experiments:
[1] = target: Factor XIa (Homo sapiens, UniProt P03951); experiment: Factor XIa inhibition assay utilizing a fluorophore-quencher pair peptide substrate (FLINT); type: biochemical; settings: 11-point, 3-fold serial dilution, top 100 nM; 30 min preincubation; 15 μM 5Fam-KLTRAETV-K5Tamra substrate; kinetic reads over 30 min; read-out: FXIa Inhibition IC50
Excerpt: Biological Example 1: Factor XIa Inhibition Assay Utilizing a Fluorophore-Quencher Pair Peptide Substrate
A fluorescence intensity (FLINT) based assay was used to monitor inhibition of Factor XIa. The peptide substrate, 5Fam-KLTRAETV-K5Tamra (purchased from New England Peptide) was chosen based on the FXI sequence. Conversion of zymogen FXI to its activated form, FXIa, occurs by proteolytic cleavage by […] at two sites, Arg146 and Arg180. The custom peptide used in this assay was based on the Arg146 cleavage site of FXI. The peptide substrate was designed with a fluorophore-quencher pair, where the fluorescence is quenched until FXIa cleaves the 8-mer peptide after the Arg residue.
The Factor XIa FLINT assay was used with the following 5Fam-KLTRAETV-K5Tamra assay buffer: 50 mM Tris, pH 7.5, 100 mM NaCl, 5 mM CaCl2, 0.1 mg/mL BSA, 0.03% CHAPS. Assay buffer was prepared by mixing all ingredients fresh. 5Fam-KLTRAETV-K5Tamra peptide substrate was first prepared at 10 mM in 100% DMSO, then diluted to 3 mM in 100% DMSO. Assay buffer was then added directly to the 3 mM stock of substrate to prepare the 30 μM 2× working concentration (15 μM final concentration). The 2× Factor XIa stock solution was prepared by diluting 6.562 μM stock in 1× assay buffer for a […].
Test compound(s) were run in an 11-point, 3-fold serial dilution with a final top compound concentration of 100 nM. Final DMSO in assay was 2%. FXIa was preincubated with compound for 30-minutes and then substrate was added to initiate the reaction. The assay was run with kinetic (KIN) reads at 5 min intervals over 30 minutes. […] More specifically, the assay was run as follows: • 100 nL of 0.01 mM test compound was dispensed into black 384-well non-binding Greiner BioOne 784900 plate for 0.1 μM final concentration, • 5 μL of 1× assay buffer was dispensed to column 24 (low control) and 5 μL 2× Factor XIa solution was dispensed to columns 1-23 (column 23 high control); • the plate was centrifuged with a “cover” plate at 500 rpm for 1 min • the plate was pre-incubated for 30 minutes at room temperature with plate covered; • 5 μL of 2×5Fam-KLTRAETV-K5Tamra peptide substrate was dispensed into the entire plate, columns 1-24; • the plate was centrifuged with a “cover” plate at 500 rpm for 1 min; • the plate was read monitoring fluorescence intensity on the BMG PHERAStar at room temperature, using fluorescence module 485 nm/520 nm.
(§1) Percent inhibition (IC50) curves were generated per compound tested, and data was analyzed using a 4-parameter logistic fit using GeneData Screener. The relative fluorescence unit (RFU) values were normalized to percent inhibition using the following equation: % inhibition=((HC−LC)−(compound−LC)/(HC−LC))*100
where LC—low control=mean signal of no Factor XIa or 100% inhibition of Factor XIa; HC—high control=mean signal of Factor XIa+5Fam-KLTRAETV-K5Tamra peptide substrate with DMSO only.
(§2) An 11-point dose response curve for the test compound(s) was generated using GENDATA to determine IC50 value based on the following equation: Y=Bottom+(Top−Bottom)/(1+10^((log IC50−X)*HillSlope))
(§3) where Y is the % inhibition in the presence of X inhibitor concentration, Top=high control=mean signal of Factor XIa+5Fam-KLTRAETV-K5Tamra peptide substrate with DMSO only; Bottom=low control—mean signal of no Factor XIa or 100% inhibition of Factor XIa; HillSlope—Hill coefficient; and IC50=concentration of compound with 50% inhibition in relation to top/high control.

[2] = target: human plasma kallikrein (Homo sapiens, UniProt P03952); experiment: Kallikrein inhibition assay utilizing a quenched AMC peptide substrate (FLINT); type: biochemical; settings: 11-point, 3-fold serial dilution, top 1 μM; 30 min preincubation; 2 nM kallikrein; 50 μM Z-Gly-Pro-Arg-AMC; kinetic reads over 30 min
Procedure: Biological Example 2: Kallikrein Inhibition Assay Utilizing a Quenched AMC Peptide Substrate
A fluorescence intensity (FLINT) based assay was used to monitor inhibition of human plasma kallikrein. The peptide substrate, Z-Gly-Pro-Arg-AMC (Purchased from Bachem; Catalog #I-1150) was chosen based on its relatively low KM for kallikrein which enables running the assay at lower substrate concentrations to control background fluorescence. The kinetic parameters for this substrate were determined by fitting titration data to the Michaelis-Menten equation yielding a KM=40 μM, kcat=0.76 s^−1, and kcat/KM=18932 M^−1s^−1.
The Kallikrein FLINT assay was used with the following Z-Gly-Pro-Arg-AMC assay buffer: 50 mM Tris, pH 7.5, 100 mM NaCl, 5 mM CaCl2, 0.1 mg/mL BSA, 0.03% CHAPS. Assay buffer was prepared by mixing all ingredients fresh. 2× Z-Gly-Pro-Arg-AMC peptide substrate was prepared by diluting 10 mM stock into 1× assay buffer for a 100 μM working concentration (50 μM final concentration). The 2× kallikrein stock solution was prepared by diluting 14.76 μM stock in 1× assay buffer for a 4 nM working stock solution (2 nM final concentration).
Test compound(s) were run in an 11-point, 3-fold serial dilution with a final top compound concentration of 1 μM. Final DMSO in assay was 2%. Plasma kallikrein was pre-incubated for 30-minute with compound and then 50 μM substrate was added to initiate the reaction. The assay was run with kinetic (KIN) reads at 5 min intervals over 30 minutes. The time course was linear using 2 nM kallikrein greater than 30 minutes. More specifically, the assay was run as follows: • 100 nL of 0.1 mM test compound was dispensed into black 384-well non-binding Greiner BioOne 784900 plate for 1 μM final concentration; • 5 μL of 1× assay buffer was dispensed to columns 24 (low control) and 5 μL 2× human kallikrein enzyme solution was dispensed to columns 1-23 (column 23 high control); • the plate was centrifuged with a “cover” plate at 500 rpm for 1 min • the plate was pre-incubated for 30 minutes at room temperature with plate covered; • 5 μL of 2× Z-Gly-Pro-Arg-AMC peptide substrate was dispensed into the entire plate, columns 1-24; • the plate was centrifuged with a “cover” plate at 500 rpm for 1 min; • the plate was read monitoring fluorescence intensity on the BMG PHERAStar at room temperature, using fluorescence module 340 nm/440 nm.
as §1
where LC—low control=mean signal of […] 100% inhibition of human kallikrein enzyme; HC—high control=mean signal of […]+Z-Gly-Pro-Arg-AMC peptide substrate with DMSO only.
as §2
as §3, with “human kallikrein enzyme+Z-Gly-Pro-Arg-AMC” for “Factor XIa+5Fam-KLTRAETV-K5Tamra”, “human kallikrein enzyme” for “Factor XIa”, “human kallikrein enzyme;” for “Factor XIa;”

Sequence of human plasma kallikrein (P03952 391-638 limits assumed): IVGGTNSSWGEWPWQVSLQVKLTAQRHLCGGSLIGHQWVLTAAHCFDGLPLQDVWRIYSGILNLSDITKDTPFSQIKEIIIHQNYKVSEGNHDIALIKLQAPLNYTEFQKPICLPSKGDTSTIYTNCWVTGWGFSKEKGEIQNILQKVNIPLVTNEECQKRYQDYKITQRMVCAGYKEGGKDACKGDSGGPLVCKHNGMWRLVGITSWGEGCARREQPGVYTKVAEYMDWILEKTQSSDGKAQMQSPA
Sequence of human plasma kallikrein (P03952 20-390 partner limits assumed): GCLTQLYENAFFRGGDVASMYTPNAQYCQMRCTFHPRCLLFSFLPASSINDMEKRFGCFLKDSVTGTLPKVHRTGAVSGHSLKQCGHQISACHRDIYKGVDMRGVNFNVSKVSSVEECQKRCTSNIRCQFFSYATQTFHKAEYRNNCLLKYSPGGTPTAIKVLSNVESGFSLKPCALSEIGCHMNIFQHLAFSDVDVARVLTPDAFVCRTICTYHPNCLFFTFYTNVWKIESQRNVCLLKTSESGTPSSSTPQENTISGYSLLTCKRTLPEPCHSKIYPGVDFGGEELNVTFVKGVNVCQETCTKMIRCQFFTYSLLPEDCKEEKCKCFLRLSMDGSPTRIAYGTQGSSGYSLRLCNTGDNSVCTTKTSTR
Sequence of Factor XIa (P03951 388-625 limits assumed): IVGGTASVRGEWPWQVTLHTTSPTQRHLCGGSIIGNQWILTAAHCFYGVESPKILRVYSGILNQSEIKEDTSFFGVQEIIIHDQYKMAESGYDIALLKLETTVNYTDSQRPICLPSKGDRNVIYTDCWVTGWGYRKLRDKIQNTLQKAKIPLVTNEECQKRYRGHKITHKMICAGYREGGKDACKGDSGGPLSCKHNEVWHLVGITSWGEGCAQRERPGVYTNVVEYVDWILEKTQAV
Sequence of Factor XIa (P03951 19-387 partner limits assumed): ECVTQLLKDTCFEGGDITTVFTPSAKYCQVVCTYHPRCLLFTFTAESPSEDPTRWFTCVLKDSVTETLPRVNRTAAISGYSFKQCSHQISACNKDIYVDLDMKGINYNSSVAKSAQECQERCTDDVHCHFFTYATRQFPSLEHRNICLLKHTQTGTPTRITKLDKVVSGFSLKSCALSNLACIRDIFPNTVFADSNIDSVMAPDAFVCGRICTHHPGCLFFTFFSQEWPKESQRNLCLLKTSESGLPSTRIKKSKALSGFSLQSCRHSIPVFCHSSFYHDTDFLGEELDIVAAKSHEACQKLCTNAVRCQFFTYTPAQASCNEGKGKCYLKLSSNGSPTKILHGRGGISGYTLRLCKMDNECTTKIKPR

Structure (SMILES)	IC50 [1]	IC50 [2]
CO[C@@H]1C[C@@H](C(=O)Nc2ccc3nccnc3c2)N2C(=O)C=C(c3c(-n4cnnn4)ccc(Cl)c3F)CC12 (mixture of isomers) [ID No. 46, (1R,3S)-7-[3-Chloro-2-fluoro-6-(tetrazol-1-yl)phenyl]-1-methoxy-5-oxo-N-quinoxalin-6-yl-2,3,8,8a-tetrahydro-1H-indolizine-3-carboxamide]	5.3 nM	12.3 nM
O=C(Nc1ccc(-c2nc(=O)o[nH]2)cc1F)[C@@H]1CCC2CC(c3c(-n4cnnn4)ccc(Cl)c3F)=CC(=O)N21 (mixture of isomers) [ID No. 47, (3S)-7-(3-Chloro-2-fluoro-6-(1H-tetrazol-1-yl)phenyl)-N-(2-fluoro-4-(5-oxo-2,5-dihydro-1,2,4-oxadiazol-3-yl)phenyl)-5-oxo-1,2,3,5,8,8a-hexahydroindolizine-3-carboxamide]	23.3 nM	274 nM
O=C(Nc1ccc(-n2ccnn2)cc1)[C@@H]1CCC2CC(c3c(-n4cnnn4)ccc(Cl)c3F)=CC(=O)N21 (mixture of isomers) [ID No. 48, (3S)—N-(4-(1H-1,2,3-triazol-1-yl)phenyl)-7-(3-chloro-2-fluoro-6-(1H-tetrazol-1-yl)phenyl)-5-oxo-1,2,3,5,8,8a-hexahydroindolizine-3-carboxamide]	21.4 nM	86.3 nM
O=C(Nc1ccc(-n2nccn2)cc1)[C@@H]1CCC2CC(c3c(-n4cnnn4)ccc(Cl)c3F)=CC(=O)N21 (mixture of isomers) [ID No. 49, (3S)—N-(4-(2H-1,2,3-triazol-2-yl)phenyl)-7-(3-chloro-2-fluoro-6-(1H-tetrazol-1-yl)phenyl)-5-oxo-1,2,3,5,8,8a-hexahydroindolizine-3-carboxamide]	30.5 nM	54.2 nM
O=C(Nc1ccc2nc[nH]c2c1)[C@@H]1CCC2CC(c3c(-n4cnnn4)ccc(Cl)c3F)=CC(=O)N21 (mixture of isomers) [ID No. 53, (3S)—N-(1H-benzo[d]imidazol-6-yl)-7-(3-chloro-2-fluoro-6-(1H-tetrazol-1-yl)phenyl)-5-oxo-1,2,3,5,8,8a-hexahydroindolizine-3-carboxamide]	11.1 nM	56.2 nM
O=C(Nc1ccc2ncoc2c1)[C@@H]1CCC2CC(c3c(-n4cnnn4)ccc(Cl)c3F)=CC(=O)N21 (mixture of isomers) [ID No. 54, (3S)—N-(Benzo[d]oxazol-6-yl)-7-(3-chloro-2-fluoro-6-(1H-tetrazol-1-yl)phenyl)-5-oxo-1,2,3,5,8,8a-hexahydroindolizine-3-carboxamide]	11.5 nM	59 nM
O=C(Nc1ccc2ncsc2c1)[C@@H]1CCC2CC(c3c(-n4cnnn4)ccc(Cl)c3F)=CC(=O)N21 (mixture of isomers) [ID No. 55, (3S)—N-(Benzo[d]thiazol-6-yl)-7-(3-chloro-2-fluoro-6-(1H-tetrazol-1-yl)phenyl)-5-oxo-1,2,3,5,8,8a-hexahydroindolizine-3-carboxamide]	6.6 nM	27.7 nM
O=C(Nc1ccc2n[nH]nc2c1)[C@@H]1CCC2CC(c3c(-n4cnnn4)ccc(Cl)c3F)=CC(=O)N21 (mixture of isomers) [ID No. 56, (3S)—N-(2H-benzo[d][1,2,3]triazol-5-yl)-7-(3-chloro-2-fluoro-6-(1H-tetrazol-1-yl)phenyl)-5-oxo-1,2,3,5,8,8a-hexahydroindolizine-3-carboxamide]	5.4 nM	19 nM
O=C(Nc1ccc2[nH]nc(O)c2c1)[C@@H]1CCC2CC(c3c(-n4cnnn4)ccc(Cl)c3F)=CC(=O)N21 (mixture of isomers) [ID No. 57, (3S)-7-[3-Chloro-2-fluoro-6-(tetrazol-1-yl)phenyl]-N-(3-hydroxy-1H-indazol-5-yl)-5-oxo-2,3,8,8a-tetrahydro-1H-indolizine-3-carboxamide]	16.7 nM	36.1 nM
O=C(O)c1ccc(NC(=O)[C@@H]2CCC3CC(c4c(-n5cnnn5)ccc(Cl)c4F)=CC(=O)N32)cc1F (mixture of isomers) [ID No. 58, 4-[[(3S)-7-[3-Chloro-2-fluoro-6-(tetrazol-1-yl)phenyl]-5-oxo-2,3,8,8a-tetrahydro-1H-indolizine-3-carbonyl]amino]-2-fluoro-benzoic acid]	1.2 nM	107 nM
O=C(Nc1ccc2[nH]c(=O)cc(O)c2c1)[C@@H]1CCC2CC(c3c(-n4cnnn4)ccc(Cl)c3F)=CC(=O)N21 (mixture of isomers) [ID No. 64, (3S)-7-[3-Chloro-2-fluoro-6-(tetrazol-1-yl)phenyl]-N-(4-hydroxy-2-oxo-1H-quinolin-6-yl)-5-oxo-2,3,8,8a-tetrahydro-1H-indolizine-3-carboxamide]	3 nM	9.5 nM
O=C(Nc1ccc(-c2cnn[nH]2)cc1)[C@@H]1CCC2CC(c3c(-n4cnnn4)ccc(Cl)c3F)=CC(=O)N21 (mixture of isomers) [ID No. 68, (3S)-7-[3-Chloro-2-fluoro-6-(tetrazol-1-yl)phenyl]-5-oxo-N-[4-(1H-triazol-5-yl)phenyl]-2,3,8,8a-tetrahydro-1H-indolizine-3-carboxamide]	1.7 nM	47.1 nM
O=C(Nc1ccc(-c2nc[nH]n2)cc1)[C@@H]1CCC2CC(c3c(-n4cnnn4)ccc(Cl)c3F)=CC(=O)N21 (mixture of isomers) [ID No. 69, (3S)-7-[3-Chloro-2-fluoro-6-(tetrazol-1-yl)phenyl]-5-oxo-N-[4-(1H-1,2,4-triazol-3-yl)phenyl]-2,3,8,8a-tetrahydro-1H-indolizine-3-carboxamide]	7.3 nM	52.3 nM
